Test results as given in patent US20240398823A1, “DUAL INHIBITOR OF HISTONE DEACETYLASE 6 AND HEAT SHOCK PROTEIN 90” (TAIPEI MEDICAL UNIVERSITY, priority 2021, published 2024).

Legend:
[1] = tested on: human lung normal fibroblasts (IMR-90); experiment: MTT cytotoxicity to normal cells, IMR-90; format: cell-based; settings: 48 hours, read-out: IC50, proliferation of IMR-90
Protocol: FIGS. 3A and 3B show the effects of Compound 75 on cytotoxicity to normal cell lines. Cells were treated with DMSO or different concentrations of Compound 75 for 48 hours and cell viability was assessed by MTT assay. […] Data are expressed as mean t S.D. N values greater than 3. * P<0.05; ** P<0.01; *** P<0.001, compared with the control group.
The effects on cell viability of the HSP90/HDAC6 dual inhibitors as described in Synthesis Examples (such as Compounds 63, 64, and 66 to 76) were evaluated. Cells were seeded in 96-well plates (5000 cells/well). The next day, the serially diluted drugs were added into the wells and incubated at 37° C. for 48 h. Cell viability was measured by the MTT assay and is expressed as percentages of surviving drug-treated cells relative to untreated control cells. The IC50 was calculated by non-linear regression analysis.
The cytotoxicity to normal cells of Compound 75 was evaluated.

[2] = tested on: PD-L1 and IDO expression in tumor region (CT26); experiment: IHC of PD-L1 and IDO in CT26 tumor region; format: in vivo, mouse; settings: CT26 tumors, day 25, IHC, 10, 25, 50 mg/kg
Protocol: The tumors were removed and immunohistochemically stained at 25 days after intravenous tail injection in mice with colorectal cancer tumors. […] Bar, SD.
(§1) The effects of the HSP90/HDAC6 dual inhibitors as described in Synthesis Examples (such as Compounds 63, 64, and 66 to 76) on several factors were evaluated. IHC-Paraffin: Tumor tissues were excised from the mice, fixed in 4% formaldehyde solution in PBS, and embedded in paraffin. Sections of 4-5 μm were cut and placed in an oven at 60° C. for overnight. After deparaffinizing and rehydrating the section, the antigen retrieval was performed with citrate buffer (10 mM citrate acid, pH 6) or Tris buffer (10 mM Tris, 1 mM EDTA, pH9) by autoclave for 30 min at 121 C. The sections were blocked with 10% goat serum and then incubated with primary antibodies against the following antigens: IDO (Santa Cruz Biotechnology Dallas, TX, USA), CD8 (Novus, Littleton, CO, USA) and granzyme B (Abcam, Cambridge, UK) at 4 C for overnight. IHC— Frozen for PD-L1: Tumor tissues were collected from the mice, embedded in OCT compound (Sakura Finetek, Torrance, CA, U.S.A.). […] Images of the tumor tissues sections were captured by Mirax Scan (CARL ZEISS, Germany) or TissueFAXS (Vienna, Austria) and analyzed by HistoQuest software (Vienna, Austria).
Compound 75 was evaluated to determine its ability to reduce PD-L1 and IDO in the tumor microenvironment.

[3] = tested on: CD8 cells and granzyme B in mouse tumor area; experiment: IHC of CD8 cell infiltration and granzyme B in CT26 tumor area; format: in vivo; settings: CT26 tumors, day 25, IHC, 10, 25, 50 mg/kg
Protocol: The tumors were removed from mice on day 25 and embedded in paraffin and sectioned for immunohistochemical staining. […] Bar, SD.
as §1, with “overnight.” for “overnight. IHC— Frozen for PD-L1: Tumor tissues were collected from the mice, embedded in OCT compound (Sakura Finetek, Torrance, CA, U.S.A.).”
It is known that TME blocks the infiltration of functional immune cells into the tumor area. The effects of Compound 75 on CD8 cell infiltration in the tumor area were evaluated. […] Therefore, the ability of CD8+ T cells to secrete granzyme B was evaluated.

CT26 tumor = CT26 tumor model, Compound 75 combined with CPT-11; format: in vivo, mouse; settings: Compound 75 50 mg/kg plus CPT-11 20 mg/kg
Protocol: CT26 was injected subcutaneously into immunocompetent mice (BALB/c). The mice were treated with CPT-11 or combined Compound 75 with CPT-11 when the tumor grew to 50-100 mm^3. CPT-11 was given at 20 mg/kg for 7 consecutive days; compound 75 was given at 50 mg/kg every 2 days (8 doses in total, with suspension after day 14). […] Bar, S.E.M.
Whether Compound 75 could enhance the tumor suppressive effect of chemotherapeutic agents was evaluated. Control (vehicle), CPT-11 (20 mg/kg), or Compound 75 (50 mg/kg) was administered in combination with CPT-11 to mice and sacrificed them on day 25 as shown in FIG. 13A.

For `COc1ccc(N(Cc2ccc(C(=O)NO)cc2)C(=O)c2cc(C(C)C)c(O)cc2O)cc1` [Compound 75, 2,4-Dihydroxy-N-(4-hydroxycarbamoyl-benzyl)-5-isopropyl-N-(4-methoxy-phenyl)-benzamide], the IC50 [1] was over 20 µM, the “PD-L1 and IDO expressions in the tumor region” value [2] was “reduces PD-L1 and IDO expressions” and the “CD8 immune cell infiltration in the mouse tumor area” value [3] was “significantly increased”. For the same compound, the “granzyme B secretion” value [3] was “concentration-dependent increase”, the “body weight, combined therapy versus CPT-11 alone” value (CT26 tumor) was “no significant difference” and the “tumor suppressive effect in combination with CPT-11” value (CT26 tumor; day 25) was “significantly enhanced the effect of CPT-11 therapy”.
